The text below walks through data of patent publication US20070015733A1, “Aryl Phosphate Derivatives of d4T having Activity Against Resistant HIV Strains” (Parker Hughes Institute, priority 1998, published 2007).

Data set [1] in a line: Pharmacokinetics after intravenous or oral administration. The note with it: intravenous administration. Type of data set: in vivo, mice.
Data set [2] can be described thus: Stability in plasma, whole blood, gastric fluid and intestinal fluid. Type of data set: in vitro ADME. The note with it: plasma or whole blood. The protocol:
Ala-d4T-MP is stable both in plasma and in whole blood. […] This hypothesis is consistent with the formation of a significant amount of d4T after incubation of d4T-5′-[p-bromophenyl methoxyalaninyl phosphate] with a liver homogenate.
Orally administered d4T-5′-[p-bromophenyl methoxyalaninyl phosphate] also yielded Ala-d4T-MP and d4T as the major metabolites. […] This metabolite can be absorbed in the intestine and then further metabolized to yield d4T in the blood. The tmax and t1/2 values for d4T in mice were longer when derived from orally administered d4T-5′-[p-bromophenyl methoxyalaninyl phosphate] (42.4 minutes and 99.0 minutes, respectively) than from orally administered d4T (5 minutes and 18 minutes, respectively). The tmax value is higher but the t1/2 value is lower for orally administered d4T-5′-[p-bromophenyl methoxyalaninyl phosphate] compared to intravenously administered d4T-5′-[p-bromophenyl methoxyalaninyl phosphate]. […] However, the bioavailability of d4T metabolized from d4T-5′-[p-bromophenyl methoxyalaninyl phosphate] (48%) was lower than that of orally administered d4T (98%).

Data set [3] deals with HIV-1 (HTLVIIIB) in TK-deficient CEM T-cells. The data set is described as follows: Inhibition of HIV-1 replication in TK-deficient CEM T-cells (p24 / RT activity). In kind it is cell-based. The protocol:
(§1) Percent inhibition of viral replication was calculated by comparing the p24 and RT activity values from the test substance-treated infected cells with those from untreated infected cells. In parallel, the cytotoxicity of the compounds was examined using a microculture tetrazolium assay (MTA) of cell proliferation, as described.in the Zarling, Enrice, and Uckun articles Supra).
(§2) Cellular Assays of Anti-HIV Activity and Cytotoxicity. […] Percent viral inhibition was calculated by comparing the RT activity values from the test substance-treated infected cells with RT values from untreated infected cells (i.e., virus controls).

The nature of data set [4]: Microculture tetrazolium assay (MTA) cytotoxicity in PBMNC. The note with it: human. The protocol:
as §1, §2
(§3) Antiviral susceptibility assays. Phenotypic drug susceptibility studies of HIV-1 isolates and strains were performed by measuring the production of the p24 gag protein in peripheral blood mononuclear cells (PBMC) from seronegative healthy volunteers in the presence of increasing concentrations of the anti-HIV agent using the quantitative Coulter HIV-1 p24 antigen ezyme immunoassay (EIA) and HIV-1 p24 Antigen Kinetic Standard (Beckman Coulter), as previously described (Uckun, 1998, Antimicrobial Agents and Chemotherapy 37(4): 835-38). Informed consent was obtained from the blood donors according to DHHS guidelines using consent forms approved by the Institutional Review Board. In brief, PBMC were cultured for 72 h in RPMI 1640 medium (Gibco) supplemented with 20% (vol/vol) heat-inactivated fetal bovine serum, 5% human interleukin-2 (Zeptometrix), 2 mM L-glutamine, 25 mM HEPES, 2 g/L NaHCO3, 100 U/ml penicillin/streptomycin (Gibco), 50 μg/ml gentamicin (Gibco), and 5 μg/ml phytohemagglutinin-P (PHA-P) (Sigma) for 24-72 hours prior to exposure to HIV at a multiplicity of infection of 0.001-0.1 during a 1-h adsorbtion period at 37±1° C. in a humidified 5-7% CO2 atmosphere. Subsequently, cells were cultured in 96-well microtiter plates (100 μl/well; 2×10^6 cells/ml, triplicate wells) in the presence of the anti-HIV agents at 6-7 different concentrations ranging from 0.0001 μM to 100 μM, and 25 μL aliquots of culture supernatants were removed from the wells on day 6 after infection for p24 EIA, as previously described (Uckun, 1998, Antimicrobial Agents and Chemotherapy, 37(4):835-38). Controls included uninfected and untreated cells (background control) and infected but untreated (virus control) cells. The p24 EIA utilizes a murine monoclonal antibody to HIV core protein used to coat microwell strips to which the antigen present in the test culture supernatant samples binds. Percent inhibition of viral replication was calculated by comparing the p24 values from the test substance-treated infected cells with p24 values from untreated infected cells (i.e., virus controls). The IC50 values were determined using the Statview statistics program (SAS Institute, Inc.). In parallel, the effects of various treatments on cell viability were also examined as previously described (Uckun, 1998, Antimicrobial Agents and Chemotherapy, 42:383-388). In brief, noninfected PBMC were treated with each compound for 5 days under identical experimental conditions. A microculture tetrazolium assay (MTA) was performed to quantitate cellular proliferation (Uckun, 1998, Antimicrobial Agents and Chemotherapy, 42:383-388).
In parallel, the cytotoxicity of the compounds was examined using a microculture tetrazolium assay (MTA) of cell proliferation, as described (in the Zarling, Enrice, and Uckun articles Supra).

In a further data set the test system is HIV-2 (Strain: CBL-20). The data set is described as follows: Inhibition of HIV-2 replication in PBMNC (RT activity). In kind it is cell-based. The protocol:
(P-AZT) and with AZT. The incubation and analysis methods used were as described above for Example 3.
as §2

Data set [5] can be described thus: Microculture tetrazolium assay (MTA) cytotoxicity in CEM cells. The note with it: human. How it is done: as §1, §2
A further data set deals with HIV-1 (strain: HTLVIIIB). The data set is described as follows: microbe, parasite or virus in culture. In kind it is cell-based. The note with it: Human immunodeficiency virus 1, read-out: PBMNC IC50 [RT], PBMNC; unit not given in Table 5 (0.04 = 40 nM). The protocol: as §1, §2
Data set [6] concerns AZT- and NNI-resistant HIV-1 (strain: RTMDR-1). The data set is described as follows: Inhibition of RTMDR-1 (HIV-MDR) replication in PBMNC (RT activity). In kind it is cell-based. The protocol:
as §2

The subject of a further data set is HIV-1 HTLVIIIB
The data set is described as follows: microbe, parasite or virus in culture. The protocol:
In vitro assays of anti-HIV-1 activity. Normal human peripheral blood mononuclear cells (PBMNC) from HIV-negative donors were cultured 72 hours in RPMI 1640 supplemented with 20% (v/v) heat-inactivated fetal bovine serum (FBS), 3% interleukin-2, 2 mM L-glutamine, 25 mM HEPES, 2 g/L NaHCO3, […], and […] prior to exposure to HIV-1 at a multiplicity of infection (MOI) of 0.1 during a 1 hour adsorption period at 37° C. in a humidified 5% CO2 atmosphere. Subsequently, cells were cultured in 96-well microtiter plates ([…]; 2×10^6 cells/mL) in the presence of various concentrations of d4T phosphoramidates and aliquots of culture supernatants were removed from the wells on the 7th day after infection for p24 antigen assays, as previously described (Uckun et al., 1998, Antimicrobial Agents and Chem., 42(2):383-388). The applied p24 enzyme immunoassay (EIA) was the unmodified kinetic assay commercially available from Coulter Corporation/Immunotech, Inc. (Westbrooke, Me.), which utilizes a murine mAb to HIV core protein coated onto microwell strips to which the antigen present in the test culture supernatant samples binds. Percent viral inhibition was calculated by comparing the p24 values from untreated infected cells (i.e., virus controls).
The anti-HIV activity of the compounds was examined by evaluating their ability to inhibit HIV replication in peripheral blood mononuclear cells using previously described procedures (Uckun et al., 1998, Antimicrobial Agents and Chem., 42(2):383-388). Percent inhibition of viral replication was calculated by comparing the p24 antigen levels from the test substance-treated infected cells with those from vehicle-treated infected cells.
as §3, with “Inc.).” for “Inc.). In parallel, the effects of various treatments on cell viability were also examined as previously described (Uckun, 1998, Antimicrobial Agents and Chemotherapy, 42:383-388). In brief, noninfected PBMC were treated with each compound for 5 days under identical experimental conditions. A microculture tetrazolium assay (MTA) was performed to quantitate cellular proliferation (Uckun, 1998, Antimicrobial Agents and Chemotherapy, 42:383-388).”

Where [7] appears, read: Human immunodeficiency virus 1, PBMC.

Like-named read-outs stand apart in the source and are kept apart here. Bounds are passed on as bounds.

As for `Cc1cn([C@H]2C=C[C@@H](COP(=O)(O)NC(C)C(=O)O)O2)c(=O)[nH]c1=O` (stereo partly drawn) [Ala-d4T-MP, alaninyl-d4T-monophosphate], in data set [1], the “elimination half-life (t1/2) of the administered substance” value is 28.5 min. Further, in data set [2], the “stability in plasma and whole blood” value is on record as “stable”.
As usually defined, the IC50 is the concentration that inhibits the measured activity by half. Turning to `COC(=O)C(C)NP(=O)(OC[C@H]1O[C@@H](n2cc(C)c(=O)[nH]c2=O)CC1N=[N+]=[N-])Oc1ccc(Br)cc1` (stereo partly drawn) [Compound 5c, AZT-5′-(para-bromophenylmethoxyalaninyl phosphate)], the half-inhibitory concentration (IC50) was 40 nM in data set [3] (Human immunodeficiency virus 1, CCRF-CEM, TK-deficient CEM cells, read-out: IC50 value for inhibition of RT activity); 40 nM in data set [3] (Human immunodeficiency virus 1, T-cell, TK-deficient CEM T-cells, Table 5, read-out: CEM IC50 [RT]); 3900 nM in the data set on HIV-2 (Strain: CBL-20) (Human immunodeficiency virus 2, read-out: HIV-2 IC50 [RT]); above 10000 nM in [5]; 4 nM in the data set with HIV-1 (strain: HTLVIIIB); 1500 nM in data set [6] (Human immunodeficiency virus 1, read-out: HIV-MDR IC50 [RT]). Further, the IC50 in [6] (Human immunodeficiency virus 1, read-out: IC50 against HIV-MDR) came out at 1500 nM; in [6] (Human immunodeficiency virus 1, read-out: RTMDR-1 IC50 [RT]), 1500 nM. Besides, in data set [3] (TK-deficient CEM cells), the “times more effective than AZT in inhibiting HIV replication” value was found to be 5 times. In addition, the 50% inhibitory concentration (IC50) at 5 days in data set [4] was above 10000 nM. The “antiviral activity against HIV-2 (in words)” value with HIV-2 (Strain: CBL-20) (PBMNC) was “not effective”. In addition, in data set [6] (PBMNC), the “antiviral activity against RTMDR-1 (in words)” value is “not effective”.
As a reminder, the IC90 is the point of the concentration-response curve where the effect stands at 90%. Regarding `Cc1c(O)cccc1C(=O)N[C@@H](CSc1ccccc1)[C@H](O)CN1C[C@H]2CCCC[C@H]2C[C@H]1C(=O)NC(C)(C)C` [nelfinavir], the CC50 at 5 days in [4] was 3500 ± 1400 nM. For the same molecule, the “SI(CC50/IC50)” value in the data set with HIV-1 HTLVIIIB is 583. Also, in the data set with HIV-1 HTLVIIIB (setting [7]), the half-maximal inhibitory concentration (IC50) amounted to 6 ± 3 nM and the concentration for an effect of 90% (IC90) was found to be 84 ± 38 nM.
